We go through 104 compounds from PubChem BioAssay AID1033 (Sanford-Burnham Center for Chemical Genomics, 2008).

Calls of active or inactive are those of the source. How the calls were made is not given here. Some results are limits rather than exact numbers.

Chain of Chaperone protein DnaK (Escherichia coli (strain K12)) (P0A6Y8 whole entry, looked up, the tested form may be a part): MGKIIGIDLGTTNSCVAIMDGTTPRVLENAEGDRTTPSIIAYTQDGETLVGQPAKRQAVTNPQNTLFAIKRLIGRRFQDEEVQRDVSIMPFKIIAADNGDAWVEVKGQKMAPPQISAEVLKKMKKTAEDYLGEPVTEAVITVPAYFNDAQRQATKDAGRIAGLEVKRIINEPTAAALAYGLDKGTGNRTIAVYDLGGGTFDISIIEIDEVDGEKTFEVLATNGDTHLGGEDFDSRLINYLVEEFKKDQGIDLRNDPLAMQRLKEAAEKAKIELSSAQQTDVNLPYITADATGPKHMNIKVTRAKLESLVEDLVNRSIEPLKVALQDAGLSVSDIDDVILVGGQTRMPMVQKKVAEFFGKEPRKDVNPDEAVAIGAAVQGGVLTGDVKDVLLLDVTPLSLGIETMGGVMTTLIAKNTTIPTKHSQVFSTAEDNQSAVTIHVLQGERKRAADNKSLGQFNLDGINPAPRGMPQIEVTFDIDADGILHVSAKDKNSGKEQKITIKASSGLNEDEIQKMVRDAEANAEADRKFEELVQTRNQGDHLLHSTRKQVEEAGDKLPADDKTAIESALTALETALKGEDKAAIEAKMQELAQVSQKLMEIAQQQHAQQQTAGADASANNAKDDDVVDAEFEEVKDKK

This test has as its target Chaperone protein DnaK (Escherichia coli (strain K12)) (UniProt P0A6Y8). Kind of test: binders of DnaK substrate-binding domain, biophysical, NMR, chaperone (AID 1033). The conditions noted are these: Purified DnaK SBD, NMR ligand binding.
What is called Kd is a measure of binding affinity in units of concentration. For `CN(C)c1n[nH]c(=O)[nH]c1=O`, the Kd was > 4 mM (inactive).

Turning to `CC(=O)Nc1nnc(-c2ccccn2)o1`, the Kd was > 4 mM (inactive).

As to `CC(=O)CC1(O)C(=O)Nc2ccc(Br)cc21` (centres undefined), the Kd is > 4 mM (inactive).

In the case of `Nc1nc(-c2ccc(Cl)cc2)nn1C(=O)c1cccnc1`, the Kd is > 4 mM (inactive).

For the compound `NCc1ccc(N2CCOCC2)cc1`, the Kd was > 4 mM (inactive).

For `CC(C)c1nnc(N)s1`, the Kd is > 4 mM (inactive).

For the compound `Cc1cc(Cl)ccc1NC(=O)C(N)=O`, the Kd was > 4 mM (inactive).

`Cc1nn(-c2ccccc2C(=O)O)c(=O)c2ccccc12`: the Kd was > 4 mM (inactive).

In the case of `O=C(CC1SC(=O)NC1=O)Nc1ccccc1` (centres undefined), the Kd was > 4 mM (inactive).

Turning to `O=C1Cc2ccccc2N1c1ccccc1`, the Kd is > 4 mM (inactive).

Regarding `N#Cc1cc2c(nc1SCc1ccncc1)CCC2`, the Kd is > 4 mM (inactive).

Regarding `CSc1nnc2c(n1)OC=Nc1ccccc1-2`, the Kd is > 4 mM (inactive).

Turning to `O=c1[nH]c2ccc(S(=O)(=O)NC3CC3)cc2[nH]1`, the Kd was > 4 mM (inactive).

As to `Cc1ccc2cc(N)ccc2n1`, the Kd was > 4 mM (inactive).

Take `Cc1cc(NC(=O)c2cc(C)on2)no1`: the Kd was > 4 mM (inactive).

As to `CCOC(=O)c1ccc(Oc2ccc(C)nn2)cc1`, the Kd was > 4 mM (inactive).

For `OCc1cccc2c1OCO2`, the Kd is > 4 mM (inactive).

`OC1CCN(c2nccc(C(F)(F)F)n2)CC1`: the Kd is > 4 mM (inactive).

As for `COCCn1cnc2cc(C)c(C)cc21`, the Kd is > 4 mM (inactive).

Take `Cc1nc(-c2cccc(N)c2)cs1`: the Kd is > 4 mM (inactive).

On to `C=CC1=C(C)/C(=C/c2[nH]c(Cc3[nH]c(/C=C4\NC(=O)C(C)=C4C=C)c(C)c3CCC(=O)O)c(CCC(=O)O)c2C)NC1=O`, for which the Kd was > 4 mM (inactive).

As to `O=C(COc1ccccc1Cl)N1CCCC1`, the Kd is > 4 mM (inactive).

Consider `CC(CC(O)C1OC1(C)C)[C@@H]1CCC2(C)C3=CCC4C(C)(C)C(=O)CCC4(C)C3CC[C@@]12C` (some centres undefined), for which the Kd was > 4 mM (inactive).

Turning to `Cc1n[nH]c(C)c1N`, the Kd was > 4 mM (inactive).

With `CC1(C)CC2C1CCC1(C)OC2(C)CCC1O` (centres undefined), the Kd is > 4 mM (inactive).

For `CCCc1ncc(C(O)c2cccc3ccccc23)n1C` (centres undefined), the Kd is > 4 mM (inactive).

As to `Cc1cc(NC(=O)c2ccc3c(c2)OCO3)no1`, the Kd was > 4 mM (inactive).

As for `O=c1[nH]nc(Cc2ccccn2)c2ccccc12`, the Kd is > 4 mM (inactive).

Turning to `OCCNc1ccccn1`, the Kd was > 4 mM (inactive).

For the compound `Cc1ccc(-c2c(C)n([O-])c3c([n+]2=O)CCCC3)o1`, the Kd was > 4 mM (inactive).

As to `O=C1O[C@H](C(O)CO)C(O)=C1O` (some centres undefined), the Kd was > 4 mM (inactive).

As to `Cc1c(C(=O)Nc2ccncc2)oc2c1C(=O)CC(C)(C)C2`, the Kd was > 4 mM (inactive).

With `CC(=O)N(c1ccccc1)C1C=CS(=O)(=O)C1` (centres undefined), the Kd was > 4 mM (inactive).

As to `CN=C(C)c1c(O)n(C)c(=O)n(C)c1=O`, the Kd was > 4 mM (inactive).

In the case of `Cc1cc(C(=O)O)n[nH]1`, the Kd was > 4 mM (inactive).

Turning to `Cc1cc(C)n2c(SCc3c(C)noc3C)nnc2n1`, the Kd was > 4 mM (inactive).

For `CNC(=S)Nc1cccc(C(=O)O)c1`, the Kd was > 4 mM (inactive).

As for `CNC(=O)N1CCN(C(=O)NC)CC1`, the Kd was > 4 mM (inactive).

Take `O=C(c1ccncc1)N1CCN(C(=O)c2ccncc2)CC1`: the Kd was > 4 mM (inactive).

`Nc1cccc(-c2cnco2)c1`: the Kd is > 4 mM (inactive).

`COc1cc(/C=C/C(=O)O)ccc1O`: the Kd was > 4 mM (inactive).

As for `CSc1ccn(CCC(=O)O)c(=O)n1`, the Kd is > 4 mM (inactive).

Consider `COc1ccc(Cl)cc1-c1n[nH]c(=S)n1C`, for which the Kd was > 4 mM (inactive).

For `CN(C)C(=O)CCNS(=O)(=O)c1ccccc1`, the Kd was > 4 mM (inactive).

Consider `OCc1cccs1`, for which the Kd was > 4 mM (inactive).

In the case of `Cn1nc(C(=O)N2CCCC2)c2ccccc2c1=O`, the Kd was > 4 mM (inactive).

Regarding `CC(=O)c1c(C)n([O-])c2ccccc2[n+]1=O`, the Kd was > 4 mM (inactive).

For the compound `c1ccc2[nH]c(NCCN3CCOCC3)nc2c1`, the Kd was > 4 mM (inactive).

As for `NC(=O)c1cccc2c(=O)oc3ccccc3c12`, the Kd is > 4 mM (inactive).

`COc1ccc(/C=C2/NC(=S)NC2=O)cc1`: the Kd is > 4 mM (inactive).

In the case of `COc1nc(C#N)c(N2CCOCC2)o1`, the Kd is > 4 mM (inactive).

With `COc1ccccc1-c1c(C)nn2c(C)c(C(C)=O)cnc12`, the Kd was > 4 mM (inactive).

As for `CC(=O)c1cnc(Nc2nc(C)c3ccccc3n2)nc1C`, the Kd is > 4 mM (inactive).

As to `NC(=O)c1ccc(NC(=O)c2cccnc2)cc1`, the Kd is > 4 mM (inactive).

Take `CC(=O)c1c(C)n(O)c2ccc3nonc3c12`: the Kd is > 4 mM (inactive).

As for `O=C1NC(=O)C(=Cc2cccs2)C(=O)N1`, the Kd is > 4 mM (inactive).

Regarding `CCN1CCc2c(sc(N)c2C(N)=O)C1`, the Kd was > 4 mM (inactive).

Regarding `Cc1n[nH]c(C)c1NC(=O)c1cccc(F)c1`, the Kd was > 4 mM (inactive).

Turning to `Fc1cccc(Cl)c1CN1CCNCC1`, the Kd was > 4 mM (inactive).

As for `NCc1ccc2c(c1)OCO2`, the Kd was > 4 mM (inactive).

Consider `O=C(O)c1cccc2c1OCCCO2`, for which the Kd is > 4 mM (inactive).

Regarding `CC(=O)c1cccc(NS(=O)(=O)N(C)C)c1`, the Kd was > 4 mM (inactive).

Take `CCCCCC1C(=O)CCC1CC(=O)O` (centres undefined): the Kd is > 4 mM (inactive).

For `COc1ccc(-c2coc3c(O)c(OC)ccc3c2=O)cc1`, the Kd was > 4 mM (inactive).

Regarding `Nc1nc(NCc2ccco2)nn1-c1ccccc1`, the Kd was > 4 mM (inactive).

For the compound `C=CCSc1[nH]c(=O)cc(C)c1C(N)=O`, the Kd was > 4 mM (inactive).

Regarding `O=C(O)C1CCCCN1Cc1ccccc1` (centres undefined), the Kd was > 4 mM (inactive).

With `c1ccc(NCc2nc(-c3ccccc3)no2)cc1`, the Kd is > 4 mM (inactive).

Regarding `O=C(NC1CC1)c1ccccc1[N+](=O)[O-]`, the Kd was > 4 mM (inactive).

In the case of `Cn1cc(Cl)c(C(=O)NC2CCCCCC2)n1`, the Kd is > 4 mM (inactive).

Take `Nc1ccc(-c2csnn2)cc1`: the Kd was > 4 mM (inactive).

For `O=C1CSC(=Nc2cccc(C(F)(F)F)c2)N1`, the Kd was > 4 mM (inactive).

Regarding `O=c1c(-c2ccco2)[n+]([O-])c2ccccc2n1O`, the Kd was > 4 mM (inactive).

For `Cc1cc(N2C(=O)CCC2=O)n(-c2ccccc2)n1`, the Kd was > 4 mM (inactive).

For `O=C(Nc1nc2c(s1)CCCC2)c1cccnc1`, the Kd was > 4 mM (inactive).

As to `CP(C)(=O)CCC(=O)O`, the Kd is > 4 mM (inactive).

As for `COc1cccc(C(=O)Nc2c(C)n[nH]c2C)c1`, the Kd is > 4 mM (inactive).

For `COc1ccc2cc3[n+](cc2c1OC)CCc1cc2c(cc1-3)OCO2`, the Kd is > 4 mM (inactive).

For `Cc1noc(C)c1C(=O)N1CCc2ccccc2C1`, the Kd was > 4 mM (inactive).

Consider `CCC(C)C(=O)O[C@H]1[C@H](O)C2C(CN3CC(C)CCC3[C@@]2(C)O)C2C[C@]34O[C@]5(O)C(OC(=O)C(C)(O)C(C)O)CC[C@@]3(C)C5C(OC(C)=O)[C@@H](OC(C)=O)C4[C@@]21O` (some centres undefined), for which the Kd is > 4 mM (inactive).

Regarding `O=S(=O)(N1CCOCC1)n1nnc2ccccc21`, the Kd was > 4 mM (inactive).

In the case of `Cc1cc(=O)n(CC(C)C)c(O)c1C#N`, the Kd was > 4 mM (inactive).

As to `CC(C)c1ccc2c(c1)CCC1[C@](C)(CN)CCC[C@]21C` (some centres undefined), the Kd is > 4 mM (inactive).

As for `CS(=O)(=O)N1CCN(C(=O)c2ccccc2F)CC1`, the Kd was > 4 mM (inactive).

For the compound `O=c1nc(NCc2ccco2)sc2ncccc12`, the Kd was > 4 mM (inactive).

With `CC(=O)Nc1cccc(N2C(=O)CCC2=O)c1`, the Kd is > 4 mM (inactive).

Turning to `CC1=C(C(N)=O)C(c2ccco2)C(C(N)=O)=C(C)N1`, the Kd was > 4 mM (inactive).

For `CC1(C)Cc2c(C#N)c(N)n(-c3ccccc3)c(=O)c2CO1`, the Kd was > 4 mM (inactive).

Consider `c1cc(C(N2CCOCC2)N2CCOCC2)ccn1`, for which the Kd is > 4 mM (inactive).

Take `OC1CCN(Cc2ccc[nH]2)CC1`: the Kd was > 4 mM (inactive).

As for `Cc1nc(NC2=NCCC(=O)N2)nc2ccccc12`, the Kd is > 4 mM (inactive).

In the case of `Nc1ncccc1OCc1ccccc1`, the Kd was > 4 mM (inactive).

On to `COc1cc([C@@H]2c3cc4c(cc3[C@H](O)[C@H]3COC(=O)[C@@H]23)OCO4)cc(OC)c1OC`, for which the Kd is > 4 mM (inactive).

Regarding `O=C(Nn1c(=S)[nH]c2ccccc2c1=O)c1ccncc1`, the Kd was > 4 mM (inactive).

In the case of `Cc1ccc(-n2cnnn2)c2cccnc12`, the Kd is > 4 mM (inactive).

On to `O=C(Nn1cnnc1)c1ccccc1-c1ccccc1`, for which the Kd was > 4 mM (inactive).

In the case of `COc1cc2c(cc1OC)C1=C(C#N)CCC(=O)N1CC2`, the Kd is > 4 mM (inactive).

For the compound `COc1ccc2nc(NC(=O)c3cnccn3)sc2c1`, the Kd is > 4 mM (inactive).

Regarding `COc1nc(N2CCOCC2)nc(N)c1[N+](=O)[O-]`, the Kd was > 4 mM (inactive).

For the compound `O=C(O)Cc1nc(-c2ccncc2)n[nH]1`, the Kd is > 4 mM (inactive).

In the case of `O=C(c1cc2ccccc2o1)N1CCCCCC1`, the Kd is > 4 mM (inactive).

`Cc1nn2c(=O)/c(=C/c3cccc(F)c3)sc2nc1=O`: the Kd was > 4 mM (inactive).

On to `O=C(COc1ccccc1)N1CCc2ccccc2C1`, for which the Kd is > 4 mM (inactive).

Take `C=CCc1cc(C(=O)N2CCCCC2)ccc1O`: the Kd is > 4 mM (inactive).
